≈ marks a conversion by molar mass, not a printed value. Like-named read-outs stand apart in the source and are kept apart here.
Legend:
F+ donor cells = assay: microbe, parasite or virus in culture; type: cell-based, E. coli; settings: for EC50 / 100 minute EC50: vs. F+ donor cells; for EC50: read-out: 100 minute EC50; for Selectivities by EC50, Transconj.: listed as vs. F+ donor cells relative to transconjugants
Text: (§1) A 96-well fluorescence-based assay using oxygen biosensor plates (Becton Dickinson, Franklin Lakes, N.J., U.S.A.) was employed to monitor bacterial cell survival. FIG. 7 schematically illustrates the assay mechanism of action. […] In the absence of viable bacteria, however, no fluorescence emission is detected because the fluorophore is quenched by free oxygen. The assay can further be utilized to measure conjugative DNA transfer.
(§2) Relaxase-dependent cell survival was examined by placing cultures of F+/TraI+ E. coli cells (with antibiotic resistance, e.g., Ab^r1, on a non-conjugative plasmid) within wells and exposing them to putative inhibitory compounds. […] Negative controls for this assay can be F− (Ab^r2) cells and F+ cells (Ab^r1) containing either no F plasmid relaxase (TraI) gene, or a TraI harboring catalytic tyrosine to phenylalanine mutations; in both cases, these control cells should be resistant to relaxase-dependent cell toxicity. […] Fluorescence can be measured using a PHERASTAR™ fluorescence plate reader (BMG LABTECH, Offenburg, Germany) over 8 hours time.

F− recipient cells = assay: microbe, parasite or virus in culture; type: cell-based, E. coli; settings: for EC50 / 100 minute EC50: vs. F− recipient cells; for EC50: read-out: 100 minute EC50; for Selectivities by EC50, Donors: listed as vs. F− recipient cells relative to donors; for Selectivities by EC50, Transconj.: listed as vs. F− recipient cells relative to transconjugants
Text: as §1, §2

transconjugants = assay: microbe, parasite or virus in culture; type: cell-based, E. coli; settings: for Selectivities by EC50, Donors: listed as vs. transconjugants relative to donors
Text: as §1, §2

F+ or F− cells = assay: 24 hr. MIC bounds (turbid/clear wells); type: cell-based, E. coli; settings: 8x serial dilutions, bounds identical for F+ or F− cells; for MIC: Escherichia coli
F plasmid TraI N300 = biological target: T1, F plasmid TraI N300 (Escherichia coli, UniProt P14565); assay: Fluorescence kinetic assay of oriT DNA cleavage and crossover by TraI N300; type: biochemical, E. coli; settings: data not shown
T1 construct: An amino-terminal 300 residue F plasmid TraI construct; made in house; host or cells: E. coli BL21 (DE3)/pLysS or HMS174 (DE3)/pLysS, vector pTYB2
T1 sequence (P14565 1-306): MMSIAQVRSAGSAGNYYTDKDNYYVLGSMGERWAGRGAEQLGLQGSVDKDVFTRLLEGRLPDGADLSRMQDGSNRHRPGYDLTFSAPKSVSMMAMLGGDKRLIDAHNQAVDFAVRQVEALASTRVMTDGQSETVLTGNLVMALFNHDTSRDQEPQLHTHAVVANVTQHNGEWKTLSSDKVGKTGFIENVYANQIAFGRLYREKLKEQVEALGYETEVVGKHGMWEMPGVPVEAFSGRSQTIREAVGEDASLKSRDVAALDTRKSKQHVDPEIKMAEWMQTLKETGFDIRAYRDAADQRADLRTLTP
Experimental: Reaction Buffer: 6.42 mM MgCl2, 20.5% glycerol, 153.9 mM NaCl, and 51.3 mM Tris-HCl pH 7.5. Streptavidin Wash Buffer (Tris buffered saline, TBS/Tween): and 150 mM NaCl, 25 mM Tris-HCl pH 7.5, and 0.05% Tween-20. Stopping Buffer: 1.2% sodium-dodecyl sulfate (SDS), and 300 mM EDTA pH 10. TE Buffer: 1 mM EDTA, and 10 mM Tris-HCl pH 7.4. Fluorescence Buffer: 80% glycerol, 200 mM Tris-HCl pH 8.0. Short-term N300 stock (for storage at −20° C.): 50% Reaction Buffer, 49.8% glycerol, 0.2% long-term protein solution (84.6 nM final N300 concentration). All 5× stocks except Probe stocks were diluted in Reaction Buffer. 5× Enzyme Stock: 8.4 mL short-term N300 stock diluted to 2.02 nM N300. 5× Inhibitor Stocks: imidodiphosphate (pNp) at 0-50 nM in Reaction Buffer. 5× Substrate Stocks: oligonucleotides b29 and PCb31eco diluted to […] each, by 3-fold serial dilutions. 5× Probe Stocks: […] (1.2-fold molar excess) oligonucleotide downF in TE Buffer. All reactions and procedures involving downF were assembled or performed in darkened conditions. Solutions and microtiter plates containing downF were kept in foil-lined containers at all times to prevent photobleaching.
Two oriT derived oligonucleotides, b29 and PCb31eco, were designed for binding and cleavage by TraI based on past studies (see Oligonucleotides section herein; FIG. 4A). The overall method is modified from those described previously for the study of TraI and R388TrwC (Byrd et al., 2002; Grandoso et al., 2000; Matson and Morton, 1991). Reactions were assembled from 16 μL of 5× Substrate Stock, 16 μL of 5× Inhibitor Stock, and 32 μL of Reaction Buffer. 80 μL reactions were initiated with 16 μL of 5× Enzyme Stock and raised to 37° C. 10 μL samples were removed at eight time points (optimized to define timecourses) and stopped in 10 μL of Stopping Buffer at room temperature. Stopped reactions were placed on a 100° C. heat block for one minute, spiked with 2 μL of 5× Probe Stock while still hot, and incubated at 37° C. for 10 minutes (see Kinetic Assay Formulations for probe handling).
Samples were diluted to […] with Streptavidin Wash Buffer and transferred to Biobind Assembly streptavidin-coated microtiter plates (Thermo Electron Corporation, Waltham, Mass., U.S.A.) and incubated at 37° C. for 45 minutes. Plates were washed with at least 5-fold excess Streptavidin Wash Buffer (in an inverted position to prevent excess biotinylated species from transferring between wells). Wells were filled with 65 μL of Fluorescence Buffer for optimum 6-FAM™ fluorescence. Plates were read in a FLUOSTAR OPTIMA™ (BMG Labtech, Offenburg, Germany) with a 490 nm excitation and 520 nm emission filters (10 nm bandpass) with the gain optimized for maximum signal. The timecourses thus collected were designated Cleavage Courses. Plates were removed and irradiated with 306 nm ultraviolet radiation for 10 minutes to cleave the PC biotin linker. They were then washed inverted with at least 5-fold excess Streptavidin Wash Buffer, filled with 65 μL of Fluorescence Buffer, and again read as above. These timecourses were designated Cleavage+Crossover Courses (FIG. 4A).
All timecourses were fitted by nonlinear regression with un-weighted least-squares methods using SIGMAPLOT™ 8.0 (SYSTAT Software, Inc., Point Richmond, Calif., U.S.A.) (also used for graph construction). Timecourses with blanked signals in arbitrary fluorescence units were scaled by curve mean in groups of at least four replicates, culled for outliers, and averaged by time point. On average, one replicate time point was culled from each group of four used. The averaged curves were fitted to a simple, three-parameter exponential decay equation (Equation 1), time versus signal, and converted into units of concentration.
where t is time in seconds, y0+a is the initial signal, b is a constant that determines the shape of the curve. […]

[1] = Escherichia coli, 100 min, first EC50 block, mass concentration
[2] = Escherichia coli, 100 min, first EC50 block
[3] = Escherichia coli, 100 min, second block, mass concentration
[4] = Escherichia coli, 100 min, second block
[5] = Escherichia coli, 100 min, read-out: 100 minute EC50, vs. transconjugants, first EC50 block, mass concentration
[6] = Escherichia coli, 100 min, read-out: 100 minute EC50, vs. transconjugants, second block
[7] = Escherichia coli, 100 min, read-out: 100 minute EC50, vs. transconjugants, second block, mass concentration
[8] = clear wells after 24 hr. incubation, read-out: 24 hr. MIC bounds, upper
[9] = turbid wells after 24 hr. incubation, read-out: 24 hr. MIC bounds, lower
[10] = first EC50 block, mass concentration
[11] = second block, mass concentration
[12] = vs. transconjugants, first EC50 block, mass concentration
[13] = vs. transconjugants, first EC50 block, read-out: 100 minute EC50
[14] = vs. transconjugants, second block, mass concentration
[15] = vs. transconjugants, second block, read-out: 100 minute EC50
[16] = clear wells after 24 hr. incubation
[17] = turbid wells after 24 hr. incubation

Row | Compound | Selectivities by EC50, Transconj. (F+ donor cells; first EC50 block) | Selectivities by EC50, Transconj. (F+ donor cells; second block) | Selectivities by EC50, Donors (F− recipient cells; first EC50 block) | Selectivities by EC50, Transconj. (F− recipient cells; first EC50 block) | Selectivities by EC50, Donors (transconjugants; first EC50 block) | Selectivities by EC50, Donors (transconjugants; second block) | 100 minute EC50 (F+ donor cells; [10]) [µg/mL] | EC50 (F+ donor cells; first EC50 block) [µM] | 100 minute EC50 (F+ donor cells; [11]) [µg/mL] | EC50 (F+ donor cells; second block) [µM] | 100 minute EC50 (F− recipient cells; [10]) [µg/mL] | EC50 (F− recipient cells; first EC50 block) [µM] | 100 minute EC50 (F− recipient cells; [11]) [µg/mL] | EC50 (F− recipient cells; second block) [µM] | 100 minute EC50 (transconjugants; [12]) [µg/mL] | EC50 (transconjugants; [13]) [µM] | 100 minute EC50 (transconjugants; [14]) [µg/mL] | EC50 (transconjugants; [15]) [µM] | 24 hr. MIC bounds, upper (F+ or F− cells; [16]) [mM] | 24 hr. MIC bounds, lower (F+ or F− cells; [17]) [mM] | also measured
1 | CC(O)(P(=O)(O)O)P(=O)(O)O [Etidronate, reference compound] | 1.4E+00 | 2.0E+01 | 4.3E+04 | 5.9E+04 | 7.3E−01 | 5.1E−02 | – | – | – | – | – | – | – | – | – | – | – | – | – | – | EC50 (F+ donor cells; [1]): 0.002 µg/mL; EC50 (F+ donor cells; [2]): 0.008 ± 0.0002 µM; EC50 (F+ donor cells; [3]): 4000 µg/mL; EC50 (F+ donor cells; [4]): 20000 µM; EC50 (F− recipient cells; [1]): 67 µg/mL; EC50 (F− recipient cells; [2]): 327 µM; EC50 (F− recipient cells; [3]): 9000 µg/mL; EC50 (F− recipient cells; [4]): 42000 µM; Selectivities by EC50, Donors (F− recipient cells; second block): 2.1E+00; Selectivities by EC50, Transconj. (F− recipient cells; second block): 4.1E+01; EC50 (transconjugants; [5]): 0.001 µg/mL; EC50 (transconjugants; [6]): 1000 µM; EC50 (transconjugants; [7]): 210 µg/mL; MIC (F+ or F− cells; [8]): 12.5 mM (≈ 2580 µg/mL); MIC (F+ or F− cells; [9]): 1.56 mM (≈ 321 µg/mL)
2 | O=P(O)(O)CNCP(=O)(O)O [Iminobis(methylphosphonate)] | 8.4E−03 | – | 4.8E+05 | 4.0E+03 | 1.2E+02 | – | 0.002 | 0.01 | >2000 | > 10000 | 1000 | 5000 ± 3300 | >2000 | > 10000 | 0.253 | 1 | 2000 | 8000 ± 500 | 10 | 1.25 | –
3 | COP(=O)(OC)c1ccccc1P(=O)(OC)OC [1,2-Bis(dimethoxyphosphoryl)benzene, 1,2-bis(dimethoxyphosphoryl)benzene] | 4.8E−03 | – | 3.3E+05 | 1.6E+03 | 2.1E+02 | – | 0.02 | 0.068 | >29000 | > 100000 | 7000 | 22000 | >29000 | > 100000 | 4 | 14 ± 0.3 | >29000 | > 100000 | 100 | 12.5 | –
4 | O=P(O)(O)OP(=O)(O)O [Pyrophosphate, reference compound] | – | – | – | – | – | – | – | – | – | – | – | – | – | – | – | – | – | – | – | – | effect on enzyme activity (F plasmid TraI N300): no effect
5 | Methylenediphosphonate | 8.8E+01 | 1.8E+01 | 7.8E+01 | 6.9E+03 | 1.1E−02 | 5.5E−02 | 1 | 8 | 4000 | 21000 | 117 | 667 ± 0.1 | 7000 | 41000 | 0.017 | 0.096 ± 0.0123 | 205 | 1000 | 12.5 | 1.56 | Selectivities by EC50, Donors (F− recipient cells; second block): 1.9E+00; Selectivities by EC50, Transconj. (F− recipient cells; second block): 3.5E+01
6 | O=P(O)(O)C(Cl)(Cl)P(=O)(O)O [Clodronate, reference compound] | 1.1E−01 | 6.1E+00 | 3.6E+02 | 3.9E+01 | 9.2E+00 | 1.6E−01 | – | – | – | – | – | – | – | – | – | – | – | – | – | – | EC50 (F+ donor cells; [1]): 1 µg/mL; EC50 (F+ donor cells; [3]): 7000 µg/mL; EC50 (F+ donor cells; [4]): 30000 µM; EC50 (F− recipient cells; [1]): 365 µg/mL; EC50 (F− recipient cells; [2]): 1000 µM; EC50 (F− recipient cells; [3]): > 24000 µg/mL; EC50 (F− recipient cells; [4]): > 100000 µM; EC50 (transconjugants; Escherichia coli, 100 min, read-out: 100 minute EC50, vs. transconjugants, first EC50 block): 38 µM; EC50 (transconjugants; [5]): 9 µg/mL; EC50 (transconjugants; [6]): 5000 µM; EC50 (transconjugants; [7]): 1000 µg/mL; MIC (F+ or F− cells; [8]): 100 mM (≈ 24500 µg/mL); MIC (F+ or F− cells; [9]): 12.5 mM (≈ 3060 µg/mL)

Source: patent US20090221530A1, “Relaxase Modulators and Methods of Using Same” (priority 2005, published 2009)
